Patent US20250092031A1, “RIPK3 INHIBITORS AND METHODS OF USE” (Momentum Therapeutics, Inc., priority 2023, published 2025)
pIC50: −log10 of the molar value.

Tests used:
RIPK3 = molecular target: T1, RIPK3 (Homo sapiens, UniProt Q9Y572); experiment: RIPK3 kinase assay (radiometric HotSpot, Reaction Biology Corporation); format: biochemical
T1 construct: purchased Reaction Biology Corporation (RBC), Malvern, USA (contract assay service)
Method: The assays were performed in Reaction Biology Corporation (RBC), Malvern, USA. Compounds were diluted with DMSO to a final stock concentration of 10 mM and then were tested in a 10-dose IC50 mode with a 3-fold serial dilution starting at […]. All the reactions were carried out at 10 μM ATP and MBP 20 μM as substrates. RIPK3 activity was determined using radiometric HotSpot™ kinase assay protocol and IC50 values were calculated use GraphPad Prism software.

Murine L929 cells = experiment: Necroptosis inhibition assay in L929 cells (mTNFα + zVAD, Sytox Green); format: cell-based; details: Mus musculus, 10 ng/ml mTNFα and 20 μM zVAD, 6 hours, Sytox Green fluorescence
How it was run: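 Murine L929 cells, treated 48 h after seeding with 10 ng/ml mTNFα plus 20 μM zVAD and compound ([…]), 6 h at 37° C. Necroptosis read by Sytox Green fluorescence (500ex/530em), scaled between 0.1% DMSO and TNFα+zVAD wells; IC50 from inhibition curves.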

Human HT-29 cells = experiment: Necroptosis inhibition assay in HT-29 cells (hTNFα + zVAD + SMAC mimetic, Sytox Green/Hoechst); format: cell-based; details: 10 ng/ml hTNFα, 20 μM zVAD and 100 nM SMAC mimetic, 6 hours, Sytox/Hoechst positive cells, read-out: HT29 necroptosis inhibition IC50
How it was run: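 Cells stimulated 48 h after seeding with 10 ng/ml hTNFα, 20 μM zVAD and 100 nM SMAC mimetic plus compound, 6 h at 37 °C. Sytox Green and Hoechst positive cells counted by imaging; inhibition scaled between DMSO-treated (100%) and stimulated-only (0%) wells, IC50 by curve fitting.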

T1 sequence (Q9Y572 whole entry): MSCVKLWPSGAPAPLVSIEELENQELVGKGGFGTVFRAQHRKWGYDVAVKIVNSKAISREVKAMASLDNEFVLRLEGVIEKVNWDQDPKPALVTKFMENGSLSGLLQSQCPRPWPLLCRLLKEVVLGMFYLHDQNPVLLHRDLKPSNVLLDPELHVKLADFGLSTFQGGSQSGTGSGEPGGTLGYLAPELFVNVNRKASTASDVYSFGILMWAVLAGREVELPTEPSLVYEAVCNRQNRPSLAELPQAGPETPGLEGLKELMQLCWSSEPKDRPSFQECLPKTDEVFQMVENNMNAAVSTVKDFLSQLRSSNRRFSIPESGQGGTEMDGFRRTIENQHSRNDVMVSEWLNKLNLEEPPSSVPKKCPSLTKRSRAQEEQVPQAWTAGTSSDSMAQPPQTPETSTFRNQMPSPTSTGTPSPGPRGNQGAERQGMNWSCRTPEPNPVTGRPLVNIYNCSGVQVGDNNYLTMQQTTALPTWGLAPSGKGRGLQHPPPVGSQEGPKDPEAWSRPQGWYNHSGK

Question: Which results are given for O=C(c1ccc(-c2ccc3nccc(Nc4ccc5scnc5c4)c3c2)c(F)c1)N1CC2(CNC2)C1 [Compound 285, (4-(4-(benzo[d]thiazol-5-ylamino)quinolin-6-yl)-3-fluorophenyl)(2,6-diazaspiro[3.3]heptan-2-yl)methanone]?
Answer: pIC50 (RIPK3): 8.50; pIC50 (Murine L929 cells): 5.57; pIC50 (Human HT-29 cells): 6.89

Question: O=C(c1ccc(-c2ccc3nccc(Nc4ccc5scnc5c4)c3c2)c(F)c1)N1CCCCC1 [Compound 53, (4-(4-(benzo[d]thiazol-5-ylamino)quinolin-6-yl)-3-fluorophenyl)(piperidin-1-yl)methanone] was tested. Which pIC50 (RIPK3) did it give?
Answer: 9.14

Question: And the pIC50 (Murine L929 cells)?
Answer: 6.29

Question: And the pIC50 (Human HT-29 cells)?
Answer: 6.15

Question: With Fc1cc(CN2CC3(CNC3)C2)ccc1-c1ccc2nccc(Nc3ccc4scnc4c3)c2c1 [Compound 292, N-(6-(4-((2,6-diazaspiro[3.3]heptan-2-yl)methyl)-2-fluorophenyl)quinolin-4-yl)benzo[d]thiazol-5-amine] as the compound, how does the pIC50 (RIPK3) read?
Answer: 8.44

Question: What about the pIC50 (Murine L929 cells) of the same compound?
Answer: 5.75

Question: What about the pIC50 (Human HT-29 cells) of the same compound?
Answer: 6.80

Question: How did the pIC50 (RIPK3) turn out when CN1CCN(c2ccc(-c3ccc4nccc(Nc5ccc6scnc6c5)c4c3)cc2)CC1 [Compound 15, N-(6-(4-(4-methylpiperazin-1-yl)phenyl)quinolin-4-yl)benzo[d]thiazol-5-amine] was run?
Answer: 8.45

Question: And the pIC50 (Murine L929 cells)?
Answer: 5.92

Question: What about the pIC50 (Human HT-29 cells) of the same compound?
Answer: < 6.00

Question: CC(C)(C)N1CCN(Cc2ccc(-c3ccc4nccc(Nc5ccc6scnc6c5)c4c3)c(F)c2)CC1 [Compound 36, N-(6-(4-((4-(tert-butyl)piperazin-1-yl)methyl)-2-fluorophenyl)quinolin-4-yl)benzo[d]thiazol-5-amine] was tested. Which pIC50 (RIPK3) did it give?
Answer: 8.89

Question: And the pIC50 (Murine L929 cells)?
Answer: 6.50

Question: And the pIC50 (Human HT-29 cells)?
Answer: 6.45

Question: Which results are given for O=C1CN(Cc2ccc(-c3ccc4nccc(Nc5ccc6scnc6c5)c4c3)c(F)c2)CCN1 [Compound 12, 4-(4-(4-(benzo[d]thiazol-5-ylamino)quinolin-6-yl)-3-fluorobenzyl)piperazin-2-one]?
Answer: pIC50 (RIPK3): 8.78; pIC50 (Murine L929 cells): 6.11; pIC50 (Human HT-29 cells): 6.68

Question: How did the pIC50 (RIPK3) turn out when O=C1CN(C(=O)c2ccc(-c3ccc4c(Nc5ccc6scnc6c5)ccnc4c3)c(F)c2)CCN1 [Compound 276, 4-(4-(4-(benzo[d]thiazol-5-ylamino)quinolin-7-yl)-3-fluorobenzoyl)piperazin-2-one] was run?
Answer: 8.16

Question: And the pIC50 (Murine L929 cells)?
Answer: 6.26

Question: What about the pIC50 (Human HT-29 cells) of the same compound?
Answer: 6.27

Question: Fc1cc(CN2CCCCC2)ccc1-c1ccc2nccc(Nc3ccc4scnc4c3)c2c1 [Compound 14, N-(6-(2-fluoro-4-(piperidin-1-ylmethyl)phenyl)quinolin-4-yl)benzo[d]thiazol-5-amine] was tested. Which pIC50 (RIPK3) did it give?
Answer: 8.52

Question: And the pIC50 (Murine L929 cells)?
Answer: 6.31

Question: And the pIC50 (Human HT-29 cells)?
Answer: 6.25
